Source: patent publication US20220340983A1, “SYSTEMS AND ASSAYS FOR IDENTIFYING PU.1 INHIBITORS” (Massachustts Institute of Technology, priority 2019, published 2022)

biological target: T1, PU.1 (Mus musculus, UniProt P17433); test: Luciferase assay (luminescence) in BV2 PU.1-Luciferase reporter cells; type: cell-based; conditions: luminescence reduction in BV2 PU.1-Luciferase cells, concentration-response, Hill's equation
T1 construct: endogenous in cells; host or cells: BV2 PU.1-Luciferase (mouse microglial BV2 with a 5xLBB-luciferase reporter integrated at ROSA26)
From the text: PU.1 belongs to a group of transcription factors that all bind to the middle 5′-GGAA-3′ sequence. The flanking A/T rich sequence is crucial for conferring PU.1 selective binding. The flanking sequence requires unique structural properties of PU.1 and can therefore be targeted by drugs acting as allosteric inhibitors that prevent PU.1 from binding to the LBB. In order to achieve robust PU.1 binding, five tandem copies of the LBBs (5×LBB) were inserted into the luciferase promoter of the pGL4.23 plasmid. The region containing the five LBBs (5×LBB) was then subcloned into the pROSA26-1 plasmid (together with a PGKneo bpA plasmid for Neomycin/G418 resistance) that allows stable integration in chromosome 6 of the immortalized mouse microglial BV2 cell line (FIG. 2B). The stable cell line was created by selection with G418.
The BV2 PU.1-Luciferase cells (referred to as “cells” from here onward) were plated into a 384-well plate, using an automatic dispenser, 2000 cells per well in 30 μL of media composed of RPMI (Sigma-Aldrich), 10% FBS, 1% PenStrep (50 mg/mL) and 1% G418 (50 mg/mL) was plated. A robotic arm was used to transfer compounds in a 384-well format using a pin array into the plate containing the cells (here, 33 nL was transferred from a drug library containing 10 mM concentration of drugs for a final concentration of 10 μM per well). For reproducibility, each pin array with 384 compounds was added to 4 plates of cells. […] Subsequently, automatic of 30 μL of BrightGlo (Promega) was dispensed into 2 of the 4 plates, in order to lyse the cells and drive the luminescence reaction whereafter the luminescence intensity was measured by a plate reader (Perkin Elmer EnVision). The two other plates were fixed by automatically dispensing 30 μL of 10% formaldehyde with 2μL Hoechst per 1 mL formaldehyde which were left at room temperature for one hour, followed by plate reading (Acumen (TTPLabTech)). A compound transfer and treatment would be repeated if reproducibility between the luminescence plates and/or the fixed Hoechst plates was lacking. The drugs were selected and ranked according to the criteria described in FIG. 13. Luminescence values used were corrected for crosstalk. Hoechst values were total fluorescence area per well. Determination of a positive hit considered both the reduction of luminescence as well as a possible confounding reduction in cell viability. The formula used was y=(value−meanvalue)/stddev. […] Compounds were excluded if cell viability was reduced >2 standard deviations from the mean, using the same formula. The positive hits were then validated in multiple steps in order to identify true PU.1 inhibitors.
The degree of luminescence reduction of the hits was plotted with significant effective area under the curve in order to obtain an IC50.

Row | SMILES | IC50 [nM]
1 | CC(=O)c1c(C)oc2ccc(N(C(=O)Oc3ccccc3)S(=O)(=O)c3ccc(C(C)(C)C)cc3)cc12 [Compound 1A2] | 2280
2 | CCOc1ccc(S(=O)(=O)Nc2ccc3c(c2)c(C(C)=O)c(C)n3S(=O)(=O)c2ccc(OCC)cc2)cc1 [Compound 1A5] | 2930
3 | CC(C)c1ccc(C2Sc3ccccc3NC3=C2C(=O)c2ccccc23)cc1 (centres unmarked) [Compound 1B5] | 2310
4 | Cc1ccc(-c2nc3cc(C(C)C)ccc3o2)cc1NC(=O)c1cc([N+](=O)[O-])ccc1N1CCOCC1 [Compound 1C4] | 2430
5 | CCOC(=O)c1ccc(NS(=O)(=O)c2cc(Br)cc3c2N(C(C)=O)C(C)C3)cc1 (centres unmarked) [Compound 1D3] | 1740
6 | CCn1c(=O)c2cc(C(=O)Nc3cc(OC)c(OC)c(OC)c3)sc2c2ccccc21 [Compound 1G9] | 2290
7 | CCOC(=O)c1oc2ccc(S(=O)(=O)n3nc(-c4ccccc4OC)cc3N)cc2c1C [Compound 1H7] | 2370
8 | CCc1ccc(NC(=O)Cn2c(=O)oc3cc(S(=O)(=O)N4CCCCCC4)ccc32)cc1 [Compound 2A7] | 3620
9 | CC(C)c1ccc(NC(=O)Cn2c(=O)oc3cc(S(=O)(=O)N4CCCC4)ccc32)cc1 [Compound 2A9] | 2570
10 | CCc1ccc(CNC(=O)C2CCCN(c3nn4cc(-c5ccc(F)cc5)nc4s3)C2)cc1 (centres unmarked) [Compound 2C2] | 876
11 | COc1cc(NS(=O)(=O)c2ccc3c(c2)CC(C)N3C(=O)C2CCC2)cc(OC)c1OC (centres unmarked) [Compound 2C3] | 338
12 | CC(C)(C)OC(=O)N1CCC(c2c(C(=O)Nc3ccc4c(c3)OCCO4)cnn2-c2ccccc2)CC1 [Compound 2C12] | 2930
13 | Cc1c(Cl)cccc1-n1ncc(C(=O)Nc2ccc3c(c2)OCCO3)c1C1CCN(C(=O)OC(C)(C)C)CC1 [Compound 2D3] | 2650
14 | CCCCN(C)C(=O)C1CCCN(c2ncnc3onc(C)c23)C1 (centres unmarked) [Compound 2D5] | 2620
15 | CCOC(=O)Cn1c(=O)n(C2CCCCC2)c2nc(-c3cccc(F)c3)nc(C(N)=O)c21 [Compound 2E4] | 136

system: PU.1 dependent gene expression; test: RT-qPCR of mRNA levels in BV2 PU.1-Luciferase cells (validation round 3); type: cell-based, mouse; conditions: 2-day treatment
Protocol: The Asinex1 and ChemDiv6 libraries contain molecules with unknown biological properties, but with low toxicity, high stability, and a broad structural diversity used to generate structure-activity-relationships (SAR) of the PU.1 inhibitors. […] In order to obtain the SAR, three rounds of validation were performed. In round 1, false-positive, non-specific luciferase quencher molecules were excluded using the commercially available HEK293 CMV-Luciferase line that constitutively expresses luciferase under the CMV promoter. In round 2, weak (non-significant) hits were eliminated according to degree of PU.1 inhibition in the absence of cell death. In round 3, drugs were selected that reduce PU.1-dependent gene expression with RT-qPCR.

Row | SMILES | mRNA levels Apoe | mRNA levels IL1β | mRNA levels Spi1 | mRNA levels Trem2 | mRNA levels Tyrobp | mRNA levels Lucif.
16 | C[C@H]1C[C@H]2[C@@H]3CCC4=CC(=O)C=C[C@]4(C)[C@@]3(F)[C@@H](O)C[C@]2(C)[C@@]1(O)C(=O)CO [Betamethasone, reference compound] | 1.615 multiples of 1× | 0.379 multiples of 1× | 1.235 multiples of 1× | 1.137 multiples of 1× | 1.079 multiples of 1× | 
17 | CC(=O)c1c(C)oc2ccc(N(C(=O)Oc3ccccc3)S(=O)(=O)c3ccc(C(C)(C)C)cc3)cc12 [Compound 1A2] | 0.858 multiples of 1× | 1.054 multiples of 1× | 0.915 multiples of 1× | 1.073 multiples of 1× | 1.093 multiples of 1× | 0.324 multiples of 1×
18 | CCOc1ccc(S(=O)(=O)Nc2ccc3c(c2)c(C(C)=O)c(C)n3S(=O)(=O)c2ccc(OCC)cc2)cc1 [Compound 1A5] | 1.200 multiples of 1× | 0.707 multiples of 1× | 0.982 multiples of 1× | 1.085 multiples of 1× | 1.117 multiples of 1× | 0.371 multiples of 1×
19 | CC(C)c1ccc(C2Sc3ccccc3NC3=C2C(=O)c2ccccc23)cc1 (centres unmarked) [Compound 1B5] | 0.797 multiples of 1× | 0.843 multiples of 1× | 0.831 multiples of 1× | 0.775 multiples of 1× | 0.697 multiples of 1× | 0.491 multiples of 1×
20 | Cc1ccc(-c2nc3cc(C(C)C)ccc3o2)cc1NC(=O)c1cc([N+](=O)[O-])ccc1N1CCOCC1 [Compound 1C4] | 0.883 multiples of 1× | 0.813 multiples of 1× | 1.142 multiples of 1× | 0.928 multiples of 1× | 1.197 multiples of 1× | 0.290 multiples of 1×
21 | CCOC(=O)c1ccc(NS(=O)(=O)c2cc(Br)cc3c2N(C(C)=O)C(C)C3)cc1 (centres unmarked) [Compound 1D3] | 0.928 multiples of 1× | 1.144 multiples of 1× | 0.965 multiples of 1× | 1.031 multiples of 1× | 1.102 multiples of 1× | 0.347 multiples of 1×
22 | CCn1c(=O)c2cc(C(=O)Nc3cc(OC)c(OC)c(OC)c3)sc2c2ccccc21 [Compound 1G9] | 1.217 multiples of 1× | 0.582 multiples of 1× | 0.989 multiples of 1× | 0.713 multiples of 1× | 1.053 multiples of 1× | 0.485 multiples of 1×
23 | CCOC(=O)c1oc2ccc(S(=O)(=O)n3nc(-c4ccccc4OC)cc3N)cc2c1C [Compound 1H7] | 0.908 multiples of 1× | 1.017 multiples of 1× | 1.022 multiples of 1× | 1.100 multiples of 1× | 1.011 multiples of 1× | 0.524 multiples of 1×
24 | CCc1ccc(NC(=O)Cn2c(=O)oc3cc(S(=O)(=O)N4CCCCCC4)ccc32)cc1 [Compound 2A7] | 0.886 multiples of 1× | 0.435 multiples of 1× | 0.739 multiples of 1× | 0.942 multiples of 1× | 0.928 multiples of 1× | 0.328 multiples of 1×
25 | CC(C)c1ccc(NC(=O)Cn2c(=O)oc3cc(S(=O)(=O)N4CCCC4)ccc32)cc1 [Compound 2A9] | 0.988 multiples of 1× | 1.048 multiples of 1× | 1.073 multiples of 1× | 0.958 multiples of 1× | 1.059 multiples of 1× | 0.391 multiples of 1×
26 | CCc1ccc(CNC(=O)C2CCCN(c3nn4cc(-c5ccc(F)cc5)nc4s3)C2)cc1 (centres unmarked) [Compound 2C2] | 1.035 multiples of 1× | 0.954 multiples of 1× | 1.034 multiples of 1× | 1.031 multiples of 1× | 1.130 multiples of 1× | 0.504 multiples of 1×
27 | COc1cc(NS(=O)(=O)c2ccc3c(c2)CC(C)N3C(=O)C2CCC2)cc(OC)c1OC (centres unmarked) [Compound 2C3] | 1.133 multiples of 1× | 1.043 multiples of 1× | 0.946 multiples of 1× | 1.179 multiples of 1× | 1.127 multiples of 1× | 0.430 multiples of 1×
28 | CC(C)(C)OC(=O)N1CCC(c2c(C(=O)Nc3ccc4c(c3)OCCO4)cnn2-c2ccccc2)CC1 [Compound 2C12] | 0.731 multiples of 1× | 0.486 multiples of 1× | 0.736 multiples of 1× | 0.752 multiples of 1× | 0.713 multiples of 1× | 0.597 multiples of 1×
29 | Cc1c(Cl)cccc1-n1ncc(C(=O)Nc2ccc3c(c2)OCCO3)c1C1CCN(C(=O)OC(C)(C)C)CC1 [Compound 2D3] | 0.980 multiples of 1× | 0.960 multiples of 1× | 0.922 multiples of 1× | 0.987 multiples of 1× | 0.950 multiples of 1× | 0.480 multiples of 1×
30 | CCCCN(C)C(=O)C1CCCN(c2ncnc3onc(C)c23)C1 (centres unmarked) [Compound 2D5] | 1.400 multiples of 1× | 0.287 multiples of 1× | 1.015 multiples of 1× | 1.852 multiples of 1× | 2.257 multiples of 1× | 0.359 multiples of 1×
31 | CCOC(=O)Cn1c(=O)n(C2CCCCC2)c2nc(-c3cccc(F)c3)nc(C(N)=O)c21 [Compound 2E4] | 0.841 multiples of 1× | 1.077 multiples of 1× | 1.377 multiples of 1× | 0.806 multiples of 1× | 1.141 multiples of 1× | 0.404 multiples of 1×
32 | C[C@@H]1C[C@H]2[C@@H]3CCC4=CC(=O)C=C[C@]4(C)[C@@]3(F)[C@@H](O)C[C@]2(C)[C@@]1(O)C(=O)CO [Dexamethasone, reference compound] | 1.325 multiples of 1× | 1.041 multiples of 1× | 0.955 multiples of 1× | 0.751 multiples of 1× | 1.010 multiples of 1× | 0.373 multiples of 1×
33 | C[C@]12CCC(=O)C=C1CC[C@H]1[C@@H]3CC[C@](O)(C(=O)CO)[C@@]3(C)C[C@H](O)[C@@]12F [Fludrocortisone, reference compound] | 1.493 multiples of 1× | 1.764 multiples of 1× | 0.900 multiples of 1× | 0.895 multiples of 1× | 1.082 multiples of 1× | 1.171 multiples of 1×
